Laboratory results taken from patent publication US10696693B2, “Fused imidazole derivatives as TGF-beta inhibitors” (Rigel Pharmaceuticals, Inc., priority 2014, dated 2020).
Like-named read-outs stand apart in the source and are kept apart here.

Assays:
GDF8 = assay: AlphaScreen SureFire p-SMAD3 (Ser423/425) assay, GDF8-stimulated cells; type: cell-based; settings: Mus musculus
Procedure, shortened: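 A SureFire AlphaScreen assay measured phosphorylation of endogenous SMAD-3 at Ser423/425 in cell lysates. Cells were treated with three-fold serially diluted compounds in DMSO for about 10 minutes, then stimulated with GDF8. After medium removal, cells were lysed in 1× Lysis Buffer (about 25 μL) with gentle shaking for 5-10 minutes.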

TGF-β = assay: AlphaScreen SureFire p-SMAD3 (Ser423/425) assay, TGF-β-stimulated cells; type: cell-based; settings: Mus musculus
Procedure, shortened: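 The p-SMAD-3 (Ser423/425) SureFire assay measured phosphorylation of endogenous SMAD-3 in cell lysates. Cells were plated overnight in collagen-coated plates, exposed to three-fold serially diluted compounds for about 10 minutes, then stimulated with TGFβ. Lysates (5 μL) received acceptor bead mix for 2 hours, then donor beads for 1½ hours before AlphaScreen reading.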

[1] = MPC-11, p-SMAD3 (Ser423/425) AlphaScreen in cell lysate, MPC11, GDF8 stimulation, read-out: GDF8: inhibition of GDF8 signaling, GDF pSMAD (MPC11)
[2] = p-SMAD3 (Ser423/425) AlphaScreen in cell lysate, MPC-11, TGF-β stimulation, read-out: TGF-β: inhibition of TGF-β signaling, TGF-β pSMAD (MPC-11)
[3] = MPC-11, read-out: GDF8: inhibition of GDF8 signaling, GDF pSMAD (MPC11), p-SMAD3 (Ser423/425) AlphaScreen in cell lysate, GDF8 stimulation
[4] = MPC-11, read-out: TGF-β: inhibition of TGF-β signaling, TGF-β pSMAD (MPC-11), p-SMAD3 (Ser423/425) AlphaScreen in cell lysate, TGF-β stimulation

For `Fc1ccc(F)c(-c2nc3n(c2-c2ccc4[nH]ncc4c2)CCC3)c1F` [Compound 221, 5-(2-(2,3,6-trifluorophenyl)-6,7-dihydro-5H-pyrrolo[1,2-a]imidazol-3-yl)-1H-indazole], the IC50 (GDF8; [1]) was 0.1 to 1 µM and the IC50 (TGF-β; [2]) was > 1 µM.
`Fc1ccc(F)c(-c2nc3n(c2-c2ccc4ncsc4c2)CCC3)c1F` [Compound 222, 6-(2-(2,3,6-trifluorophenyl)-6,7-dihydro-5H-pyrrolo[1,2-a]imidazol-3-yl)benzo[d]thiazole] showed an IC50 (GDF8; [1]) of 0.1 to 1 µM and an IC50 (TGF-β; [2]) of 0.1 to 1 µM.
In the case of `Fc1cccc(-c2nc3n(c2-c2ccc4c(c2)OCO4)CCC3)c1` [Compound 223, 3-(benzo[d][1,3]dioxol-5-yl)-2-(3-fluorophenyl)-6,7-dihydro-5H-pyrrolo[1,2-a]imidazole], the IC50 (GDF8; [1]) is reported as > 1 µM and the IC50 (TGF-β; [2]) is reported as > 1 µM.
With `Fc1ccc(-c2nc3n(c2-c2ccc4nccnc4c2)CCC3)c(F)c1F` [Compound 224, 6-(2-(2,3,4-trifluorophenyl)-6,7-dihydro-5H-pyrrolo[1,2-a]imidazol-3-yl)quinoxaline] the IC50 (GDF8; [1]) was 0.1 to 1 µM and the IC50 (TGF-β; [2]) was > 1 µM.
In the case of `Fc1ccc(-c2nc3n(c2-c2ccc4[nH]ncc4c2)CCC3)c(F)c1F` [Compound 225, 5-(2-(2,3,4-trifluorophenyl)-6,7-dihydro-5H-pyrrolo[1,2-a]imidazol-3-yl)-1H-indazole], the IC50 (GDF8; [3]) is reported as 0.1 to 1 µM and the IC50 (TGF-β; [4]) is reported as 0.1 to 1 µM.
With `Fc1ccc(-c2nc3n(c2-c2ccc4ncsc4c2)CCC3)c(F)c1F` [Compound 226, 6-(2-(2,3,4-trifluorophenyl)-6,7-dihydro-5H-pyrrolo[1,2-a]imidazol-3-yl)benzo[d]thiazole] the IC50 (GDF8; [3]) was 0.1 to 1 µM and the IC50 (TGF-β; [4]) was 0.1 to 1 µM.
For `Fc1cc(-c2nc3n(c2-c2ccc4nccnc4c2)CCC3)cc(F)c1F` [Compound 227, 6-(2-(3,4,5-trifluorophenyl)-6,7-dihydro-5H-pyrrolo[1,2-a]imidazol-3-yl)quinoxaline], the IC50 (GDF8; [1]) was 0.1 to 1 µM and the IC50 (TGF-β; [2]) was > 1 µM.
In the case of `Fc1cc(-c2nc3n(c2-c2ccc4[nH]ncc4c2)CCC3)cc(F)c1F` [Compound 228, 5-(2-(3,4,5-trifluorophenyl)-6,7-dihydro-5H-pyrrolo[1,2-a]imidazol-3-yl)-1H-indazole], the IC50 (GDF8; [3]) is reported as 0.1 to 1 µM and the IC50 (TGF-β; [4]) is reported as 0.1 to 1 µM.
With `Fc1cc(-c2nc3n(c2-c2ccc4ncsc4c2)CCC3)cc(F)c1F` [Compound 229, 6-(2-(3,4,5-trifluorophenyl)-6,7-dihydro-5H-pyrrolo[1,2-a]imidazol-3-yl)benzo[d]thiazole] the IC50 (GDF8; [3]) was 0.1 to 1 µM and the IC50 (TGF-β; [4]) was > 1 µM.
`Fc1cc(F)cc(-c2nc3n(c2-c2ccc4[nH]ncc4c2)CCC3)c1` [Compound 230, 5-(2-(3,5-difluorophenyl)-6,7-dihydro-5H-pyrrolo[1,2-a]imidazol-3-yl)-1H-indazole] was tested, and the IC50 (GDF8; [3]) was 0.1 to 1 µM and the IC50 (TGF-β; [4]) was > 1 µM.
With `Fc1cc(F)cc(-c2nc3n(c2-c2ccc4cn[nH]c4c2)CCC3)c1` [Compound 231, 6-(2-(3,5-difluorophenyl)-6,7-dihydro-5H-pyrrolo[1,2-a]imidazol-3-yl)-1H-indazole] the IC50 (GDF8; [3]) was 0.1 to 1 µM and the IC50 (TGF-β; [4]) was > 1 µM.
In the case of `Fc1cc(F)cc(-c2nc3n(c2-c2ccc4ncsc4c2)CCC3)c1` [Compound 232, 6-(2-(3,5-difluorophenyl)-6,7-dihydro-5H-pyrrolo[1,2-a]imidazol-3-yl)benzo[d]thiazole], the IC50 (GDF8; [3]) is reported as 0.1 to 1 µM and the IC50 (TGF-β; [4]) is reported as > 1 µM.
With `Fc1cc(F)cc(-c2nc3n(c2-c2ccc4nccnc4c2)CCC3)c1` [Compound 233, 6-(2-(3,5-difluorophenyl)-6,7-dihydro-5H-pyrrolo[1,2-a]imidazol-3-yl)quinoxaline] the IC50 (GDF8; [3]) was > 1 µM and the IC50 (TGF-β; [4]) was > 1 µM.
`Fc1cc(F)cc(-c2nc3n(c2-c2ccc4ncccc4c2)CCC3)c1` [Compound 234, 6-(2-(3,5-difluorophenyl)-6,7-dihydro-5H-pyrrolo[1,2-a]imidazol-3-yl)quinoline] was tested, and the IC50 (GDF8; [3]) was > 1 µM and the IC50 (TGF-β; [4]) was > 1 µM.
Compound `Fc1cc(F)c(F)c(-c2nc3n(c2-c2ccc4ncsc4c2)CCC3)c1` [Compound 235, 6-(2-(2,3,5-trifluorophenyl)-6,7-dihydro-5H-pyrrolo[1,2-a]imidazol-3-yl)benzo[d]thiazole] has an IC50 (GDF8; [3]) of 0.1 to 1 µM and an IC50 (TGF-β; [4]) of 0.1 to 1 µM.
`Fc1cc(F)c(F)c(-c2nc3n(c2-c2ccc4[nH]ncc4c2)CCC3)c1` [Compound 236, 5-(2-(2,3,5-trifluorophenyl)-6,7-dihydro-5H-pyrrolo[1,2-a]imidazol-3-yl)-1H-indazole] was tested, and the IC50 (GDF8; [3]) was 0.1 to 1 µM and the IC50 (TGF-β; [4]) was > 1 µM.
With `Fc1cc(F)c(F)c(-c2nc3n(c2-c2ccc4ncccc4c2)CCC3)c1` [Compound 237, 6-(2-(2,3,5-trifluorophenyl)-6,7-dihydro-5H-pyrrolo[1,2-a]imidazol-3-yl)quinoline] the IC50 (GDF8; [1]) was 0.1 to 1 µM and the IC50 (TGF-β; [2]) was > 1 µM.
`Fc1cc(F)c(F)c(-c2nc3n(c2-c2ccc4nccnc4c2)CCC3)c1` [Compound 238, 6-(2-(2,3,5-trifluorophenyl)-6,7-dihydro-5H-pyrrolo[1,2-a]imidazol-3-yl)quinoxaline] was tested, and the IC50 (GDF8; [1]) was 0.1 to 1 µM and the IC50 (TGF-β; [2]) was 0.1 to 1 µM.
For `Fc1cc(-c2nc3n(c2-c2ccc4[nH]ncc4c2)CCC3)c(F)cc1Cl` [Compound 239, 5-(2-(4-chloro-2,5-difluorophenyl)-6,7-dihydro-5H-pyrrolo[1,2-a]imidazol-3-yl)-1H-indazole], the IC50 (GDF8; [1]) was > 1 µM and the IC50 (TGF-β; [2]) was > 1 µM.
With `Fc1cc(-c2nc3n(c2-c2ccc4ncsc4c2)CCC3)c(F)cc1Cl` [Compound 240, 6-(2-(4-chloro-2,5-difluorophenyl)-6,7-dihydro-5H-pyrrolo[1,2-a]imidazol-3-yl)benzo[d]thiazole] the IC50 (GDF8; [1]) was 0.1 to 1 µM and the IC50 (TGF-β; [2]) was > 1 µM.
In the case of `Fc1cc(-c2nc3n(c2-c2ccc4nccnc4c2)CCC3)c(F)cc1Cl` [Compound 241, 6-(2-(4-chloro-2,5-difluorophenyl)-6,7-dihydro-5H-pyrrolo[1,2-a]imidazol-3-yl)quinoxaline], the IC50 (GDF8; [1]) is reported as > 1 µM and the IC50 (TGF-β; [2]) is reported as > 1 µM.
With `Fc1cc(-c2nc3n(c2-c2ccc4ncccc4c2)CCC3)c(F)cc1Cl` [Compound 242, 6-(2-(4-chloro-2,5-difluorophenyl)-6,7-dihydro-5H-pyrrolo[1,2-a]imidazol-3-yl)quinoline] the IC50 (GDF8; [1]) was > 1 µM and the IC50 (TGF-β; [2]) was > 1 µM.
In the case of `Cc1cc(-c2nc3n(c2-c2ccc4[nH]ncc4c2)CCC3)cc(C)c1Cl` [Compound 243, 5-(2-(4-chloro-3,5-dimethylphenyl)-6,7-dihydro-5H-pyrrolo[1,2-a]imidazol-3-yl)-1H-indazole], the IC50 (GDF8; [1]) is reported as > 1 µM and the IC50 (TGF-β; [2]) is reported as > 1 µM.
In the case of `Cc1cc(-c2nc3n(c2-c2ccc4ncsc4c2)CCC3)cc(C)c1Cl` [Compound 244, 6-(2-(4-chloro-3,5-dimethylphenyl)-6,7-dihydro-5H-pyrrolo[1,2-a]imidazol-3-yl)benzo[d]thiazole], the IC50 (GDF8; [1]) is reported as > 1 µM and the IC50 (TGF-β; [2]) is reported as > 1 µM.
For `Cc1cc(-c2nc3n(c2-c2ccc4nccnc4c2)CCC3)cc(C)c1Cl` [Compound 245, 6-(2-(4-chloro-3,5-dimethylphenyl)-6,7-dihydro-5H-pyrrolo[1,2-a]imidazol-3-yl)quinoxaline], the IC50 (GDF8; [1]) was > 1 µM and the IC50 (TGF-β; [2]) was > 1 µM.
For `Cc1cc(-c2nc3n(c2-c2ccc4ncccc4c2)CCC3)cc(C)c1Cl` [Compound 246, 6-(2-(4-chloro-3,5-dimethylphenyl)-6,7-dihydro-5H-pyrrolo[1,2-a]imidazol-3-yl)quinoline], the IC50 (GDF8; [1]) was > 1 µM and the IC50 (TGF-β; [2]) was > 1 µM.
For `Fc1cc(-c2nc3n(c2-c2ccc4ncccc4c2)CCC3)cc(F)c1F` [Compound 247, 6-(2-(3,4,5-trifluorophenyl)-6,7-dihydro-5H-pyrrolo[1,2-a]imidazol-3-yl)quinoline], the IC50 (GDF8; [1]) was 0.1 to 1 µM and the IC50 (TGF-β; [2]) was > 1 µM.
In the case of `Cc1ccc(-c2nc3n(c2-c2ccc4[nH]ncc4c2)CCC3)c(F)c1F` [Compound 248, 5-(2-(2,3-difluoro-4-methylphenyl)-6,7-dihydro-5H-pyrrolo[1,2-a]imidazol-3-yl)-1H-indazole], the IC50 (GDF8; [1]) is reported as > 1 µM and the IC50 (TGF-β; [2]) is reported as > 1 µM.
In the case of `Cc1ccc(-c2nc3n(c2-c2ccc4ncsc4c2)CCC3)c(F)c1F` [Compound 249, 6-(2-(2,3-difluoro-4-methylphenyl)-6,7-dihydro-5H-pyrrolo[1,2-a]imidazol-3-yl)benzo[d]thiazole], the IC50 (GDF8; [1]) is reported as > 1 µM and the IC50 (TGF-β; [2]) is reported as > 1 µM.
With `Cc1ccc(-c2nc3n(c2-c2ccc4nccnc4c2)CCC3)c(F)c1F` [Compound 250, 6-(2-(2,3-difluoro-4-methylphenyl)-6,7-dihydro-5H-pyrrolo[1,2-a]imidazol-3-yl)quinoxaline] the IC50 (GDF8; [1]) was > 1 µM and the IC50 (TGF-β; [2]) was > 1 µM.
In the case of `Cc1ccc(-c2nc3n(c2-c2ccc4ncccc4c2)CCC3)c(F)c1F` [Compound 251, 6-(2-(2,3-difluoro-4-methylphenyl)-6,7-dihydro-5H-pyrrolo[1,2-a]imidazol-3-yl)quinoline], the IC50 (GDF8; [1]) is reported as > 1 µM and the IC50 (TGF-β; [2]) is reported as > 1 µM.
`Cc1cc(-c2nc3n(c2-c2ccc4cn[nH]c4c2)CCC3)c(F)cc1Cl` [Compound 252, 6-(2-(4-chloro-2-fluoro-5-methylphenyl)-6,7-dihydro-5H-pyrrolo[1,2-a]imidazol-3-yl)-1H-indazole] was tested, and the IC50 (GDF8; [1]) was > 1 µM and the IC50 (TGF-β; [2]) was > 1 µM.
With `Cc1cc(-c2nc3n(c2-c2ccc4ncsc4c2)CCC3)c(F)cc1Cl` [Compound 253, 6-(2-(4-chloro-2-fluoro-5-methylpheny)-6,7-dihydro-5H-pyrrolo[1,2-a]imidazol-3-yl)benzo[d]thiazole] the IC50 (GDF8; [1]) was > 1 µM and the IC50 (TGF-β; [2]) was > 1 µM.
